Assay results from paper PMC13403234, “Engineering Cathepsin S Selective Chemical Probes and Antibody−Drug Conjugates through Substrate Profiling with Unnatural Amino Acids” (Journal of Medicinal Chemistry, 2026).
*1 amine or outer side, *2 acyl side, *3 side chain or, on linkers, in order; H or OH if unused. Where a SMILES comes first, the peptide text is derived from it. [ ]: non-standard residue; d: D form. The star is where a group is joined. Dolaproine = CO[C@@H]([C@@H]1CCCN1)[C@@H](C)C(=O)O; Dil = CC[C@H](C)[C@H](NC)[C@@H](CC(=O)O)OC; Met(O2) = CS(=O)(=O)CC[C@H](N)C(=O)O; PABC = O=C(OCc1ccc(N[*:1])cc1)[*:2]; X1 = C[C@@H](N*)[C@@H](O)c1ccccc1; tBuAla = CC(C)(C)C[C@H](N)C(=O)O; Cit = NC(=O)NCCC[C@H](N)C(=O)O; NMeV = CN[C@H](C(=O)O)C(C)C; Cbz = O=C(OCc1ccccc1)*

Legend:
MDA-MB-231 cells = assay: MTS cell viability assay, MDA-MB-231; assay type: cell-based, human; conditions: TROP-2-positive MDA-MB-231 cells
Experimental: The BT-474 (ATCC HTB-20, RRID: CVCL_0179), MCF-7 (ATCC HTB-22, RRID: CVCL_0031), and MDA-MB-231 (ATCC HTB-26, RRID: CVCL_0062) breast cancer cell lines were cultured at 37 °C in a humidified incubator with 5% CO2. Cells were maintained in Dulbecco’s Modified Eagle Medium (DMEM; Gibco, Cat. No. 41965−039) supplemented with 10% fetal bovine serum (FBS; Gibco, Cat. No. A5256801), L-glutamine, sodium pyruvate, penicillin […], and streptomycin (0.1 mg/mL). All cell lines were routinely tested for mycoplasma contamination (every 12−16 weeks) using a PCR-based detection kit.
Cell viability was evaluated using the MTS assay (CellTiter 96 AQueous One Solution Cell Proliferation Assay, Promega, Cat. No. G358B) according to the manufacturer’s instructions. BT-474 cells were seeded at a density of 20,000 cells/well, while MCF-7 and MDA-MB-231 cells were seeded at 5,000 cells/well in 96-well plates and allowed to adhere overnight. Peptide prodrugs, free MMAE (used as a control), or ADCs were added in serial dilutions. For peptide prodrugs and MMAE, concentrations ranged from 0.001 to 10 μM; for ADCs, from 0.03 to 3 μM. […] Absorbance was measured at 490 nm. Background absorbance (blank wells) was subtracted from all readings, and cell viability was calculated as a percentage relative to untreated controls. […]

[1] = ADC stability in mouse serum (free MMAE by LC-MS/MS); assay type: in vitro ADME; conditions: anti-TROP-2 sacituzumab-based ADCs, up to 1 week, 37 °C
Experimental: Selected ADCs were incubated at 0.1 mg/mL in 100 μL of plasma samples for 24, 48, 72, and 168 h at 37 °C. The samples were then frozen at −80 °C and subjected to LC-MS/MS analysis. Stock solutions of MMAE and MMAE-d 8 standards were prepared in DMSO at a concentration of 10 mM and stored at −20 °C until use. Calibration solutions were prepared by diluting the stock solutions with methanol/ethanol (50:50, v/v). Mouse and human serum were purchased from Sigma-Aldrich. The concentration of MMAE in serum samples was determined based on the method described by Mak et al., with minor modifications. Briefly, 10 μL of serum was spiked with 5 μL of 25 nM MMAE-d 8 as an internal standard (IS), followed by the addition of 35 μL of ice-cold ethanol/methanol (50:50, v/v). The mixture was vortexed for 5 min and then incubated at − 20 °C for 30 min to precipitate proteins. The samples were subsequently centrifuged for 30 min at 20,000 × g and 4 °C. The supernatant was collected and subjected to LC-MS analysis. A Waters Acquity Premier UPLC system (Massachusetts, USA), consisting of a binary pump, thermostatic column holder, and refrigerated sample manager, was used for chromatographic separation. Separation was performed on an Acquity UPLC BEH C18 column (2.1 × 50 mm, 1.7 μm) using 0.1% formic acid in water as mobile phase A and 0.1% formic acid in methanol as mobile phase B. The column temperature and sample manager temperature were maintained at 45 and 15 °C, respectively. The injection volume was 1 μL, and the flow rate was 0.3 mL/min. The gradient started at 20% B, increased to 90% B over 3 min, and was held at 90% B for 2 min. Finally, the column was equilibrated back to 20% B for 1 min. The total run time was 6 min. MS analysis was performed using a Waters Xevo TQ-Absolute XR triple quadrupole mass spectrometer (Massachusetts, USA) equipped with an electrospray ionization interface. Samples were analyzed in positive multiple reaction monitoring (MRM) mode. […] MMAE and MMAE-d8 were detected based on their characteristic MRM transitions and retention times. […]

Cathepsin S [2] = target: T1, Cathepsin S (Homo sapiens, UniProt P25774); assay: Prodrug cleavage / MMAE release by LC-MS, cathepsin S; assay type: biochemical; conditions: prodrug 50 μM, pH 5.5, 37 °C, 0-120 min
T1 construct: made in house
T1 sequence (P25774 115-331): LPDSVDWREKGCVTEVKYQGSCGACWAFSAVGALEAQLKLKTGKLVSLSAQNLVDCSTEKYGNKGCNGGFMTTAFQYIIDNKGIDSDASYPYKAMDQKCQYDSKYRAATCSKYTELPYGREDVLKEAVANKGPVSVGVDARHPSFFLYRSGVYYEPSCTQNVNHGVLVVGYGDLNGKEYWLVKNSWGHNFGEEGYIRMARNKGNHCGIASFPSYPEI
Experimental: (§1) Cleavage assays were conducted at 37 °C in 1 mL reaction volumes using acetate buffer composed of 100 mM sodium acetate (pH 5.5), 100 mM NaCl, 1 mM EDTA, and 5 mM DTT. Buffers were prepared at room temperature and equilibrated before use. Prodrugs were initially dissolved in DMSO at a stock concentration of 10 mM, then diluted into the reaction buffer to a final concentration of 50 μM, maintaining a DMSO concentration below 0.5% (v/v). Reactions were initiated by the addition of recombinant cathepsin and carried out in glass LC-MS vials incubated at 37 °C. At specified time points (0, 5, 30, 60, and 120 min), aliquots were taken and directly injected into the LC-MS system without further processing. Quantification of MMAE release was based on absorbance at 220 nm. The area under the MMAE peak was integrated, and the amount of released MMAE was plotted as a function of time. Each time point was measured in triplicate, and results are presented as mean ± standard deviation (SD). A standard curve was prepared using free MMAE at concentrations of 1, 5, 10, 20, and 50 μM to enable accurate quantification of MMAE released from the prodrugs.

cathepsins B, L, and V = assay: Prodrug cleavage / MMAE release by LC-MS, other cathepsins; assay type: biochemical, human; conditions: prodrug 50 μM, pH 5.5, 37 °C
Experimental: as §1

Cathepsin L = target: T2, Cathepsin L (Homo sapiens, UniProt P07711); assay: Second-order rate constants of inhibition (kobs/[I]), cathepsin L; assay type: biochemical; conditions: Figure 4D; Cy5- and BODIPY-labeled probes
T2 construct: made in house
T2 sequence (P07711 114-333): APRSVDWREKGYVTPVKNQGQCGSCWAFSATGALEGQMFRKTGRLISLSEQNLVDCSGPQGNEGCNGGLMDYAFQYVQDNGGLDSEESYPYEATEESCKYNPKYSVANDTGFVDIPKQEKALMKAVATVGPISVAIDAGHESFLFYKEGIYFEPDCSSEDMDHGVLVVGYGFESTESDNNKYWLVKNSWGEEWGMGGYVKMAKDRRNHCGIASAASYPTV
Experimental: (§2) All kinetic studies were performed using an fMax fluorescence plate reader (Molecular Devices) in kinetic mode with 96- or 384-well plates. ACC fluorescence was monitored at excitation and emission wavelengths of 355 and 460 nm, respectively. Recombinant human cysteine cathepsins L, V, B, K, and S were expressed and purified as previously described. Prior to use, all cysteine cathepsins were titrated with E64 to normalize enzymatic activity. Assays for cathepsins were conducted in 100 mM sodium acetate buffer containing 10 mM NaCl and 10 mM DTT (pH 5.5). Breast cancer cell lysates (BT-474, MCF-7, MDA-MB-231) were prepared by culturing cells to confluence in the appropriate media, replacing media with PBS, and harvesting the cells using a cell scraper (without trypsin). The cells were pelleted by centrifugation (400 × g, 5 min), resuspended in PBS, and centrifuged again under the same conditions. After removal of the supernatant, the pellet was resuspended in cathepsin assay buffer (excluding DTT) and sonicated. Lysates were then clarified by centrifugation (12,000 × g, 5 min), and the supernatants were collected and stored at −80 °C until use. All enzymatic assays, including HyCoSuL library screening and kinetic analyses of synthetic substrates, inhibitors, probes and prodrugs, were conducted at 37 °C and repeated at least three times. Mean values are reported. Kinetic data were analyzed using GraphPad Prism software (version 10.4.1).
(§3) The second-order rate constants of inhibition (k obs/[I]) were determined for human recombinant cathepsins S, B, L, and V using their respective assay buffers. All measurements were performed under pseudo-first-order kinetic conditions, as previously described. Inhibitors or ABPs were serially diluted in assay buffer and transferred to a 96-well plate. Each well was supplemented with the fluorogenic substrate Cbz-Phe-Arg-AMC at a final concentration of 25 μM and preincubated for 15 min. In parallel, enzymes were preactivated in assay buffer for 15 min at room temperature. Following preincubation, the activated enzymes were added to the wells, and fluorescence was monitored immediately for 30 min. The k obs/[I] values (M^-1S^-1) were calculated from the progress curves and averaged from at least three independent experiments. Final inhibitor (or ABP) concentrations were maintained at a minimum of 5-fold excess relative to enzyme concentrations to ensure pseudo-first-order conditions. Results were analyzed in GraphPad Prism and are reported as mean ± standard deviation.

Cathepsin B [3] = target: T3, Cathepsin B (Homo sapiens, UniProt P07858); assay: Labeling of cathepsin B in MDA-MB-231 live cells with Cy5 probes; assay type: cell-based; design: endogenous in cells; host or cells: MDA-MB-231; conditions: cellular environments; probe labeling
Experimental: (§4) 50,000 of MDA-MB-231 cells were seeded into 12-well plate and allowed to attach overnight. The next day, OG-233 and OG-234 probes (1 μM final concentration) were added to the cells and incubated for various times (from 0,5 h up to 24 h). Control cells were preincubated with cathepsin S inhibitors (JN1, JN4, JN7) at 25 μM for 2 h, and then incubated with OG-233 or OG-234 probes for 24 h. Next, cells were harvested and prepared for SDS-PAGE analysis as described in the above section. Electrophoresis was run for 25 min (4−12% Bis-Tris Plus 10-well gel, 200 V). Next, proteins were transferred onto the membrane (0.2 μm nitrocellulose membrane, 10 V, 60 min) and Ponceau S was used to verify equal loading and transfer. Membranes were then blocked with 5% BSA in TBS-T buffer for 1 h at RT. Membranes were next incubated anticathepsin S antibody (1:1,000, overnight, 4 °C), and the next day with a secondary antibody (IRDye 800CW, donkey anti-Goat) for 30 min at RT, and scanned at 680 and 800 nm using the Sapphire biomolecular imager (Azure Biosystems) to detect the Cy5 probes and cathepsin S. All images were analyzed with Image Studio software.

[4] = target: T4, active cathepsin S in MDA-MB-231 live cells (Homo sapiens, UniProt P25774); assay: Labeling of active cathepsin S in MDA-MB-231 live cells with Cy5 probes; assay type: cell-based; conditions: probe 1 μM, 0,5 to 24 h
T4 construct: endogenous in cells; host or cells: MDA-MB-231
T4 sequence (P25774 115-331): as the sequence (P25774 115-331) above
Experimental: as §4

Cathepsin V = target: T5, Cathepsin V (Homo sapiens, UniProt O60911); assay: Second-order rate constants of inhibition (kobs/[I]), cathepsin V; assay type: biochemical; conditions: Figure 4D; Cy5- and BODIPY-labeled probes
T5 construct: made in house
T5 sequence (O60911 114-334): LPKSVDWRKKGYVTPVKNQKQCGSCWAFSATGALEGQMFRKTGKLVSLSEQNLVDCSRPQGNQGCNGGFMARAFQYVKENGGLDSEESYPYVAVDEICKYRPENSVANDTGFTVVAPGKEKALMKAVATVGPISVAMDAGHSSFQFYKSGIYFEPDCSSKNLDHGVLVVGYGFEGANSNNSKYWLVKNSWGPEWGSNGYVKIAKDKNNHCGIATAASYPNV
Experimental: as §2, §3

Cathepsin S [5] = target: T1, Cathepsin S; assay: Second-order rate constants of inhibition (kobs/[I]), cathepsin S; assay type: biochemical; conditions: Figure 4D
Experimental: as §2, §3

Cathepsin B [6] = target: T3, Cathepsin B; assay: Second-order rate constants of inhibition (kobs/[I]), cathepsin B; assay type: biochemical; design: made in house; conditions: Figure 4D; Cy5- and BODIPY-labeled probes
Experimental: as §2, §3

| Molecule | cytotoxicity of sacituzumab (anti-TROP-2) ADCs (MDA-MB-231 cells) | payload release [1] | cleavage / free MMAE release by cathepsin S (Cathepsin S [2]) | cleavage / free MMAE release by other cathepsins (cathepsins B, L, and V) | other results |
| --- | --- | --- | --- | --- | --- |
| 313 anti-TROP-2 ADC: sacituzumab (anti-TROP-2) ADC with Phe(F5)-Cit-Lys(2ClZ)-Glu(Me) linker, PABC spacer and MMAE payload | moderate toxicity | approximately 6% |  |  |  |
| ADC 300: sacituzumab (anti-TROP-2) ADC with pan-cathepsin Val-Cit linker, PABC spacer and MMAE payload |  | 1.5% |  |  |  |
| CC[C@H](C)[C@@H]([C@@H](CC(=O)N1CCC[C@H]1[C@H](OC)[C@@H](C)C(=O)N[C@H](C)[C@@H](O)c1ccccc1)OC)N(C)C(=O)[C@@H](NC(=O)[C@H](C(C)C)N(C)C(=O)OCc1ccc(NC(=O)[C@H](CCC(=O)OC)NC(=O)[C@H](CC(C)(C)C)NC(=O)[C@H](CCCNC(N)=O)NC(=O)[C@H](CCS(C)(=O)=O)NC(C)=O)cc1)C(C)C [compound 314, Ac-Met(O2)-Cit-NptGly-Glu(Me)-PABC-MMAE] (Ac-[Met(O2)][Cit][tBuAla]E(OMe)[PABC][NMeV]V[Dil][Dolaproine]-X1) |  |  | also cleaved by cathepsin S | moderate cross-reactivity toward other cathepsins |  |
| Cy5-PEG(4)-Met(O2)-Cit-NptGly-Glu(Me)-AOMK [OG-234] |  |  |  |  | kobs/[I] Cath L (Cathepsin L): 5,530 M^-1s^-1; off-target labeling of cathepsin B in cells (Cathepsin B [3]): minor off-target labeling of cathepsin B; detection of active cathepsin S in living cells [4]: able to detect active cathepsin S as soon as upon 3 h incubation; kobs/[I] Cath V (Cathepsin V): 7,900 M^-1s^-1; kobs/[I] Cath S (Cathepsin S [5]; Cy5- and BODIPY-labeled probes): 253,000 M^-1s^-1; Selectivity S to B (Cathepsin S [5]; calculated from kobs/[I], cathepsin S over cathepsin B): 23; Selectivity S to L (Cathepsin S [5]; calculated from kobs/[I], cathepsin S over cathepsin L): 46; Selectivity S to V (Cathepsin S [5]; calculated from kobs/[I], cathepsin S over cathepsin V): 32; kobs/[I] Cath B (Cathepsin B [6]): 11,200 M^-1s^-1 |
| CC[C@H](C)[C@@H]([C@@H](CC(=O)N1CCC[C@H]1[C@H](OC)[C@@H](C)C(=O)N[C@H](C)[C@@H](O)c1ccccc1)OC)N(C)C(=O)[C@@H](NC(=O)[C@H](C(C)C)N(C)C(=O)OCc1ccc(NC(=O)[C@H](CCCNC(N)=O)NC(=O)[C@@H](NC(=O)OCc2ccccc2)C(C)C)cc1)C(C)C [compound 300, Cbz-Val-Cit-PABC-MMAE, reference compound] (Cbz-V[Cit][PABC][NMeV]V[Dil][Dolaproine]-X1; N-terminus and C-terminus assumed) |  |  | efficiently cleaved by cathepsins S, B, L, and V | efficiently cleaved by cathepsins S, B, L, and V |  |
| 314 anti-TROP-2 ADC: sacituzumab (anti-TROP-2) ADC with Met(O2)-Cit-NptGly-Glu(Me) linker, PABC spacer and MMAE payload | markedly more potent | approximately 6% |  |  |  |
